Measurements published in ChEMBL document CHEMBL1201862, “PubChem BioAssay data set” (2004).
Active and inactive are the calls of the source.

Experiments:
[1] = cells; assay type: functional
[2] = target: Melanocortin receptor 4 (Homo sapiens, UniProt P32245); assay type: functional, cell-based;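 further: Cell-based assay with luminescence read-out, confirmatory dose-response testing for agonist activity of biased ligands at MC4R; human U2OS cells with tagged receptor and beta-arrestin; potency of agonists that increase receptor coupling to beta-arrestin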
Sequence of Melanocortin receptor 4 (P32245 whole entry): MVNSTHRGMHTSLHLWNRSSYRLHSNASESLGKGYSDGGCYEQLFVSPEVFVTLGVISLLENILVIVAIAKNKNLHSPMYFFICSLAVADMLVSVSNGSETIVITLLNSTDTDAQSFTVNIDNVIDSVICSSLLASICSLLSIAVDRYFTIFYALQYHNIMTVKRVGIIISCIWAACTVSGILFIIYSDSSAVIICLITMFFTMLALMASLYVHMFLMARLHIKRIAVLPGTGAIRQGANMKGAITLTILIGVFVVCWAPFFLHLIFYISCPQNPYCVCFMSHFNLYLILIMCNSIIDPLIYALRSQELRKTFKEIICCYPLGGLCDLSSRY

[3] = target: T1, Calpain-2 catalytic subunit (Sus scrofa, UniProt P43367); experiment: m-calpain protease blockers, concentration series – biochemical, fluorogenic peptide substrate, dose response (AID 1420); assay type: functional
T1 sequence (P43367 whole entry): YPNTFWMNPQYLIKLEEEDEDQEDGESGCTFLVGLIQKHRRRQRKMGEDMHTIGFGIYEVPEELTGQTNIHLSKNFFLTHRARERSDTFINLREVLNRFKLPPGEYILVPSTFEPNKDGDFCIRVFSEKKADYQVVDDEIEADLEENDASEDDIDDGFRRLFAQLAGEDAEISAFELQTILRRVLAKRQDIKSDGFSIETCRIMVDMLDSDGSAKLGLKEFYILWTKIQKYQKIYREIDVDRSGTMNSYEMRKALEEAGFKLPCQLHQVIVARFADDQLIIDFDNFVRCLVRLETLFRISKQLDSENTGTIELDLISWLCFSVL

[4] = target: T2, Short transient receptor potential channel 4 (Mus musculus, UniProt Q9QUQ5); experiment: block of DAMGO-driven TRPC4 calcium entry – cell-based, HEK293 TRPC4/mu-opioid, Fluo-4 calcium, dose response (AID 434942); assay type: functional;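 further: potency of inhibitors blocking the TRPC4 calcium response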
T2 sequence (Q9QUQ5 whole entry): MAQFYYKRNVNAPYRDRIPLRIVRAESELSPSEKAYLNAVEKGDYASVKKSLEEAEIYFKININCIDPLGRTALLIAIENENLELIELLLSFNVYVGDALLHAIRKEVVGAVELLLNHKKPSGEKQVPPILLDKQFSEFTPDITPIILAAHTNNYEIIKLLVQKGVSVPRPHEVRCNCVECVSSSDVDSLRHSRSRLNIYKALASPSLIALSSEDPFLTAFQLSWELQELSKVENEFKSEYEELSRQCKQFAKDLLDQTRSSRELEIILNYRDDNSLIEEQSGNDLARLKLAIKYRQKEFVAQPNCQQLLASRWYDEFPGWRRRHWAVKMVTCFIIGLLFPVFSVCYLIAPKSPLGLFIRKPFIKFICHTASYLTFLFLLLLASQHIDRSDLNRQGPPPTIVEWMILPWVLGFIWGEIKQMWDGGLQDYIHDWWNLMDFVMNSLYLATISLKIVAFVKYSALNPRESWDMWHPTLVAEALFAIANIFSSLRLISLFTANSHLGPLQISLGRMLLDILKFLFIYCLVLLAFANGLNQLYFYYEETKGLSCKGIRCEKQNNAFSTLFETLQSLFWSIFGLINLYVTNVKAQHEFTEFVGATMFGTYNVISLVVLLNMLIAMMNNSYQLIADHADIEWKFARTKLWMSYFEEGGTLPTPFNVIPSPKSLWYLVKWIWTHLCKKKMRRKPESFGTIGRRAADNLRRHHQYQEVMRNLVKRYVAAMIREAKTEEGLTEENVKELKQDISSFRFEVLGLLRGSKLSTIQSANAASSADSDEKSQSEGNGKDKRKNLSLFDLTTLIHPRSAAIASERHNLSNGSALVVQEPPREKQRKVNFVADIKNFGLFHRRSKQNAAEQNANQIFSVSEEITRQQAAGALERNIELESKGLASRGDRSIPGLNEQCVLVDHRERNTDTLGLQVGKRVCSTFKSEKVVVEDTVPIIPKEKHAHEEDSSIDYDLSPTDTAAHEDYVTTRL

[5] = target: Cytochrome P450 2C9 (Homo sapiens, UniProt P11712)
Sequence of Cytochrome P450 2C9 (P11712 whole entry): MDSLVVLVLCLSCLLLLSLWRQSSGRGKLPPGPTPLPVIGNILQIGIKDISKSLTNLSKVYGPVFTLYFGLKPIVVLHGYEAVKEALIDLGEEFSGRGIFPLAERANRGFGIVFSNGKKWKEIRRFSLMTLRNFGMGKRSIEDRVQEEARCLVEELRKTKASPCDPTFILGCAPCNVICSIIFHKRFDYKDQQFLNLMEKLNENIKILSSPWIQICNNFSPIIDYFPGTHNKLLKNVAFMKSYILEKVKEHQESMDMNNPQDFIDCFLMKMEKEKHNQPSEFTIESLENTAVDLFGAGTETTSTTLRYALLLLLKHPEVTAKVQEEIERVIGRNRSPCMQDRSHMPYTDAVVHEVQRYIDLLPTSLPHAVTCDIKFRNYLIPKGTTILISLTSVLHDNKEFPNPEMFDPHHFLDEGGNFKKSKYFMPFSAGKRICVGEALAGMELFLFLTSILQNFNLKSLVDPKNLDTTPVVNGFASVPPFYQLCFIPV

[6] = target: Cytochrome P450 3A4 (Homo sapiens, UniProt P08684);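 further: CYP3A4 tested as one member of a cytochrome P450 panel screen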
Sequence of Cytochrome P450 3A4 (P08684 whole entry): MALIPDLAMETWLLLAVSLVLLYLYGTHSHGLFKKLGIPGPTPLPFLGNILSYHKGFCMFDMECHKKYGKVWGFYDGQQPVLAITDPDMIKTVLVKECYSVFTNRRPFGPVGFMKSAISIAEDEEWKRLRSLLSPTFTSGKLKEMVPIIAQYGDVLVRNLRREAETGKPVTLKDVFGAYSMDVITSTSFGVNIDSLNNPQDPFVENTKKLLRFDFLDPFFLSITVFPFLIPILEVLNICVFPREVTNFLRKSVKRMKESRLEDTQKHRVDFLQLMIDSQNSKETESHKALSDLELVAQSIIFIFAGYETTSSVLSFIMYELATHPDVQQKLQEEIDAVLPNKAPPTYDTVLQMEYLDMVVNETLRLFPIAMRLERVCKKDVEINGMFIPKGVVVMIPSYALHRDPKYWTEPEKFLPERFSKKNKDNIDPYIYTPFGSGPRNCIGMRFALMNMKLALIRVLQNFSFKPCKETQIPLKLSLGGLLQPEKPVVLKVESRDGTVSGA

[7] = target: Cytochrome P450 2C19 (Homo sapiens, UniProt P33261); experiment: Cytochrome panel assay with activity outcomes. Panel member name: p450-cyp2c19 Compounds with AC50 equal or less than 10 uM are considered active; assay type: functional; settings: read-out: AC50
Sequence of Cytochrome P450 2C19 (P33261 whole entry): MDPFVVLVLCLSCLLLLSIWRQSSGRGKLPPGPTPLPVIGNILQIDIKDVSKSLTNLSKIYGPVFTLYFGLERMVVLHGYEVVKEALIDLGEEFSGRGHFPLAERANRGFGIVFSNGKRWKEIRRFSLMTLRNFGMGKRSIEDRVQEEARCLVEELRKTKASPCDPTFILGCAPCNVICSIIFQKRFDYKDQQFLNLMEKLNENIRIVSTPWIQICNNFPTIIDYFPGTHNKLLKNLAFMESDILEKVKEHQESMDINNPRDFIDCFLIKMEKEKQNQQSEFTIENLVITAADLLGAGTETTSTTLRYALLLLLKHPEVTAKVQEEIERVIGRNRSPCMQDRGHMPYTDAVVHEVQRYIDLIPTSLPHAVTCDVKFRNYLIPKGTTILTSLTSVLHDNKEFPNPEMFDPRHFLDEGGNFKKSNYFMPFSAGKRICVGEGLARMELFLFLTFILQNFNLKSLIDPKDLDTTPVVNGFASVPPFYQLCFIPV

[8] = blockers of bursicon-stimulated LGR2 cAMP reporter – cell-based, HEK293, CRE-luciferase reporter, cherry pick, set 2, dose response (AID 743343); assay type: functional;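 further: transfected cells were stimulated with diluted bursicon conditioned medium after compound addition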
[9] = blockade of melanocortin 4 receptor signaling – cell-based, plate reader, cherry pick, counter-screen for LGR2 antagonist project, dose response (AID 743444); assay type: functional;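 further: transfected HEK 293 cells stimulated with alpha-MSH peptide; potency of inhibitors of the alpha-MSH evoked signal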
[10] = target: Genome polyprotein (dengue virus type 2, UniProt P29990); experiment: flavivirus cap methylation enzyme inhibition – biochemical, confirmation dose response, primary screen (AID 588689); assay type: functional
Sequence of Genome polyprotein (P29990 2492-3391 limits assumed): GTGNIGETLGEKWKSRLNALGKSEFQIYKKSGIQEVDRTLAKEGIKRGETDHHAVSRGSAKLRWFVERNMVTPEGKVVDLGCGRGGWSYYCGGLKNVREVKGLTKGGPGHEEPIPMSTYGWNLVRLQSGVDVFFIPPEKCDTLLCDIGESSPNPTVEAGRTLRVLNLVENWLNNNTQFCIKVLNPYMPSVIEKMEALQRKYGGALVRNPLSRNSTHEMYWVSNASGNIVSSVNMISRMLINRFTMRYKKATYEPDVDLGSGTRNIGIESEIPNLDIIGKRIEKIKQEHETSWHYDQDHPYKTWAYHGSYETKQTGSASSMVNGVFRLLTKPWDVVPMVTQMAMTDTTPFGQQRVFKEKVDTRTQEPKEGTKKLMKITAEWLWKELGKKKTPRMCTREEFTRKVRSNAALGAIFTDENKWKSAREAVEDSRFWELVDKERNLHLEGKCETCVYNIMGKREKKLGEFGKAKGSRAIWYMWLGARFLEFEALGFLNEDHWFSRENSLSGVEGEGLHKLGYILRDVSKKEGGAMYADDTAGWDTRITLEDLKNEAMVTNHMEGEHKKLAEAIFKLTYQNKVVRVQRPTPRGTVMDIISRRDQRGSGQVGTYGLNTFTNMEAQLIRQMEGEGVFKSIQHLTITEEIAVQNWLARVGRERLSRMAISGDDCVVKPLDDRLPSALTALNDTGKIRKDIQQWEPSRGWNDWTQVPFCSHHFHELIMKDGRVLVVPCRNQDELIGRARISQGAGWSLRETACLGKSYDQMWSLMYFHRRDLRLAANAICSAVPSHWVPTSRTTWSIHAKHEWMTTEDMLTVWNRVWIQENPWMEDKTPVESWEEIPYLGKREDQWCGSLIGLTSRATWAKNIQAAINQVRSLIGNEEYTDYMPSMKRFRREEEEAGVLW

[11] = Luminescence Cell-Based Dose Response HTS to Identify Activators of Luciferase Translation or Activity in H4 […] Cells. [Related pubchem assays: 1829 (Project Summary), 1814 (Primary HTS)]; assay type: functional
[12] = system: H4; experiment: Luminescence Cell-Based Dose Response HTS to Identify Activators of 5'UTR Stem-Loop Driven Prion Protein mRNA Translation in H4 Neuroglioblastoma Cells. [Related pubchem assays: 1829 (Project Summary), 1814 (Primary HTS)]; assay type: functional; settings: Homo sapiens
[13] = target: T3, Carboxy-terminal domain RNA polymerase II polypeptide A small phosphatase 1 (Homo sapiens, UniProt Q9GZU7); experiment: CTDSP1 inhibitors, concentration-response, biochemical, absorbance readout, ultra-high-throughput screen actives (AID 540297); assay type: functional
T3 sequence (Q9GZU7 whole entry): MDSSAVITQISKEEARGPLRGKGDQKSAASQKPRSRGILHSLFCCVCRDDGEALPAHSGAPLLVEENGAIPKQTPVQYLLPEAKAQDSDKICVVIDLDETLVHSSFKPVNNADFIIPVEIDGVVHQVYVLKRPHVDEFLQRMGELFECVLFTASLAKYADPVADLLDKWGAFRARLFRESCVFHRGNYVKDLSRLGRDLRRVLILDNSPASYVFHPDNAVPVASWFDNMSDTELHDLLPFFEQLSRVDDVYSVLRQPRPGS

[14] = Luminescence Cell-Based Dose Confirmation HTS to Identify Activators of 5'UTR Stem-Loop Driven Alpha-Synuclein mRNA Translation in H4 Neuroglioblastoma Cells. [Related pubchem assays: 1829 (Project Summary), 1814 (Primary HTS)]; assay type: functional
[15] = target: T2, Short transient receptor potential channel 4; experiment: calcium entry via TRPC4 opening agents – cell-based, HEK293 TRPC4/mu-opioid, Fluo-4 calcium, dose response (AID 434937); assay type: functional
[16] = microbe, parasite or virus in culture; assay type: functional; settings: Mycobacterium tuberculosis
[17] = target: T4, Ubiquitin-conjugating enzyme E2 N (Homo sapiens, UniProt P61088); assay type: functional;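 further: Dose-response confirmation in a TR-FRET assay detecting UBC13-driven polyubiquitin chain formation, inhibition measured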
T4 sequence (P61088 whole entry): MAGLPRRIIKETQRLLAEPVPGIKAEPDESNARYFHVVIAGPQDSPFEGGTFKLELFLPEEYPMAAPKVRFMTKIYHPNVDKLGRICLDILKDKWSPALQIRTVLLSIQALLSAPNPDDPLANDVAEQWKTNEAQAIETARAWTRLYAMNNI

[18] = cells; assay type: functional, cell-based
[19] = target: T5, High affinity choline transporter 1 (Homo sapiens, UniProt Q9GZV3); experiment: human choline transporter blockers, potency – cell-based, 5-point CRC, membrane potential dye, dose response (AID 504840); assay type: functional
T5 sequence (Q9GZV3 whole entry): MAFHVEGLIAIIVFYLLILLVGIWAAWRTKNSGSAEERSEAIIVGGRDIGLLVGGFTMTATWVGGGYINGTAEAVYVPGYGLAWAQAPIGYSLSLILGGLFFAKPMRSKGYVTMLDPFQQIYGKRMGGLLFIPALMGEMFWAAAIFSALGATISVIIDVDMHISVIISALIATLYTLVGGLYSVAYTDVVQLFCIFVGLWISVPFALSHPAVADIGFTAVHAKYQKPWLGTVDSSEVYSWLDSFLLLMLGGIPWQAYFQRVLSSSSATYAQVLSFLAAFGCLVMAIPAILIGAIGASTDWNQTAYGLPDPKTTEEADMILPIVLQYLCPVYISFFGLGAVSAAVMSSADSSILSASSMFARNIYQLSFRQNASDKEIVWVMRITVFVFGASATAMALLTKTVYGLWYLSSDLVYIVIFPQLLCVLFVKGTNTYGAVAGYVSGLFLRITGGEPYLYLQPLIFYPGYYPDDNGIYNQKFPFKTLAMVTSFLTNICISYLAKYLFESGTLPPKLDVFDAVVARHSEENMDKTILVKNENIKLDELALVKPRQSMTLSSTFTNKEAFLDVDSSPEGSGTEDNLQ

[20] = cells; assay type: functional, cell-based; remark: listed apart in the source

## COc1ccc(OCC(=O)N/N=C2\CCc3ccccc32)cc1
[1]
  IC50: 42.9 µM (active)

## COc1ccc(-c2oc3ccc(-c4ccc5c(c4)OCO5)cc3c2C#CC2(O)CCCCC2)cc1
[2]
  EC50: > 89.2 µM (inactive)

## Cc1ccc(N2C(=O)CC(c3c[nH]c4ccccc34)C2=O)cc1 (stereo not given)
[3]
  IC50: 12.1 µM (not active)

## CCCOc1cccc(C(=O)NCCNC(=O)c2ccco2)c1
[4]
  EC50: 2.99 µM (active)

## COc1ccccc1C(=O)Nc1ccc(C(=O)c2ccccc2)cc1
[3]
  IC50: 35.2 µM (not active)

## Nc1c(-c2cccs2)cnn1-c1nc(-c2ccc(Cl)cc2Cl)cs1
[5]
  AC50: 20 µM (inconclusive)
[2]
  EC50: > 89.2 µM (inactive)
[6]
  AC50: 12.6 µM (inconclusive)

## CC(C)C(=O)Nc1ccc(C(=O)Nc2nnc(C(C)(C)C)s2)cc1
[4]
  EC50: 0.237 µM (active)

## O=C(Nc1cc(-c2nc3ccccc3s2)ccc1Cl)c1ccc2c(c1)OCO2
[7]
  AC50: 3.55 µM (inconclusive)
[5]
  AC50: 1.78 µM (inconclusive)
[2]
  EC50: > 89.2 µM (inactive)

## Cn1nc(C(=O)NNc2c(F)c(F)cc(F)c2F)c2ccccc2c1=O
[3]
  IC50: 5.53 µM (not active)

## COc1ccc(S(=O)(=O)N2CCCCN3[C@H](CO)[C@H](c4ccc(-c5cccnc5)cc4)[C@@H]3C2)cc1
[8]
  AC50: 20 µM (active)
[9]
  AC50: 25.6 µM (active)

## COc1ccccc1NS(=O)(=O)c1ccc(N/N=C/c2ccccc2OCC(=O)O)c([N+](=O)[O-])c1
[10]
  IC50: 56.5 µM (active)

## COc1ccc(C2CC(c3ccccc3)Nc3nc(NC(=O)c4cccs4)nn32)cc1 (stereo not given)
[4]
  EC50: 1.06 µM (active)

## O=C(N/N=C/c1ccc(Cl)cc1)c1ccc2c(c1)OCO2
[11]
  EC50: 1.87 µM (active)
[12]
  EC50: 2.44 µM (active)
[13]
  IC50: 6.93 µM (active)
[14]
  EC50: > 120 µM (not active)

## COc1ccc(NC(=O)COC(=O)c2c(NC(C)=O)sc(C)c2C)cc1
[2]
  EC50: > 89.3 µM (inactive)

## CC1Cc2ccccc2N1C(=S)NC(=O)c1ccco1 (stereo not given)
[3]
  IC50: 0.535 µM (not active)

## C=CCn1c(CCNC(=O)c2ccco2)nc2ccccc21
[15]
  EC50: 1.68 µM (active)

## O=C1Nc2cc(C(=O)NCCCN3CCOCC3)ccc2S/C1=C/c1cccc(Cl)c1
[16]
  CC50: > 40 µM (active)
[17]
  IC50: > 20 µM (inactive)
[1]
  IC50: 27.8 µM (active)

## c1csc(-c2nc(NCC3CCCO3)c3ccccc3n2)c1 (stereo not given)
[4]
  EC50: 4.73 µM (active)

## O=C(Cn1ncc2c3ccccc3n(Cc3ccccc3F)c2c1=O)NCCN1CCOCC1
[18]
  EC50: > 350 µM (not active)
[19]
  IC50: 12 µM (active)
[20]
  EC50: > 350 µM (not active)

## CC1CCCN1CC#CC(O)(c1ccccc1)c1ccccc1 (stereo not given)
[4]
  EC50: 0.188 µM (active)

## Cc1ccc(SC[C@H](c2ccccc2)N2CCN(CCc3ccccc3)CCC2=O)cc1
[3]
  IC50: 7.19 µM (not active)

## Cc1onc(-c2ccccc2)c1C(=O)Nc1nnc(COc2ccc(Cl)cc2)s1
[1]
  IC50: 8.45 µM (active)

## COc1ccc(C(=O)C2CCCN(C3Cc4ccccc4C3)C2)cc1OC (stereo not given)
[15]
  EC50: 1.68 µM (active)

## CCN1CCN(c2ccc(S(=O)(=O)N3CCOCC3)cc2NC(=O)/C=C/c2ccc(OC)cc2OC)CC1
[15]
  EC50: 2.99 µM (active)

## CC1CCCCC1NC(=O)c1ccc(S(=O)(=O)N2CCCC2)cc1 (stereo not given)
[19]
  IC50: 13.2 µM (active)

## CCCN(CCC)CCN=C(S)Nc1ccc2nc3n(c(=O)c2c1)CCCCC3
[15]
  EC50: 0.299 µM (active)

## CC(=O)Nc1cc(-c2ccc(C(=O)N3CCOCC3)cc2)cn2c(-c3ccccc3)cnc12
[2]
  EC50: > 89.2 µM (inactive)

## CCOc1ccc(N2C(=O)C(Cl)=C(N3CCOCC3)C2=O)cc1
[10]
  IC50: 29.4 µM (active)

## COc1ccc(F)cc1CN1CCN(C(=O)CCC(=O)Nc2nnc(C(C)C)s2)CC1
[15]
  EC50: 0.841 µM (active)

## O=C(C1CCCN(c2ncnc3c2nc2n3CCCCC2)C1)N1CCN(c2ccc(Cl)cc2)CC1 (stereo not given)
[16]
  CC50: > 40 µM (active)
[19]
  IC50: 4.57 µM (active)

## CCCCNS(=O)(=O)c1ccc2[nH]c(SCC(=O)Nc3ccccc3Cl)nc2c1
[3]
  IC50: 18.5 µM (not active)

## FC(F)Oc1ccccc1N=C(S)Nc1cccc(Cl)c1Cl
[4]
  EC50: 7.5 µM (active)
